From patent US20120121591A1 (priority 2009, published 2012) come the findings set out here.

What all share (assay type): cell-based
Experiment [1] has as its system IFN-g secretion from T cells in human whole blood.
In the next experiment the target is hKv1.3 (Homo sapiens, UniProt P22001). Briefly: cell-based. As to conditions: Kv1.3 (IWQ) IC50 (nM, Avg).
Experiment [2] deals with IL-2 secretion from T cells in human whole blood. As to conditions: read-out: WB (IL-2) IC50 (nM, Avg).
[3] abbreviates: read-out: WB (IFNg) IC5- (nM, Avg).
[4] abbreviates: read-out: WB (IFNg) IC50 (nM, Avg).

Molecules are shown by their SMILES. Where two headings read alike, the source gives them in different places.

hKv1.3, sequence (P22001 whole entry): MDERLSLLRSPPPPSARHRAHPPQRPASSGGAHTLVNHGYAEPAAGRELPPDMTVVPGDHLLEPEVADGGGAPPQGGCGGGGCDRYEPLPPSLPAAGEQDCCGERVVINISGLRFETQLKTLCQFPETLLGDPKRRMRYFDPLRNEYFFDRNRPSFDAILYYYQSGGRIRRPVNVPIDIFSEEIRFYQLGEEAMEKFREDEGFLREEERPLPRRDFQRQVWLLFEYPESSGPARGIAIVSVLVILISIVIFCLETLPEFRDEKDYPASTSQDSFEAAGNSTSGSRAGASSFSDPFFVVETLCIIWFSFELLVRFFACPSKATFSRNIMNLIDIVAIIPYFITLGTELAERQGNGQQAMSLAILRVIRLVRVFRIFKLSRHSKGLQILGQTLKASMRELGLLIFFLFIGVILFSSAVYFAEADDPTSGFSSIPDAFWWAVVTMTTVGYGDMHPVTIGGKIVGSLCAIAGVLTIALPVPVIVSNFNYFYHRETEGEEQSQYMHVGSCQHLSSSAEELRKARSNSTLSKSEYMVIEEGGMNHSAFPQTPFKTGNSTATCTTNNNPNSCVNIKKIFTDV

As for `CC[C@H](C)[C@@H]1NC(=O)[C@@H](NC(=O)[C@H](CO)NC(=O)[C@@H](N)CCCNC(=N)N)CSSC[C@@H](C(=O)O)NC(=O)[C@H]([C@@H](C)O)NC(=O)CNC(=O)[C@@H]2CSSC[C@@H]3NC(=O)[C@H](CCC(N)=O)NC(=O)[C@H](Cc4ccccc4)NC(=O)[C@H](C)NC(=O)[C@H]([C@@H](C)O)NC(=O)[C@H](CSSC[C@H](NC(=O)[C@H](Cc4ccccc4)NC(=O)[C@H](CO)NC(=O)[C@H](CC(C)C)NC(=O)[C@H](CCCNC(=N)N)NC(=O)[C@H](Cc4ccc(O)cc4)NC(=O)[C@H](CCCCN)NC(=O)[C@H](CCSC)NC(=O)[C@H](CO)NC(=O)[C@H](Cc4c[nH]cn4)NC(=O)[C@H](CCCCN)NC3=O)C(=O)N[C@@H](CCCNC(=N)N)C(=O)N[C@@H](CCCCN)C(=O)N[C@@H]([C@@H](C)O)C(=O)N2)NC(=O)[C@H](CCCNC(=N)N)NC(=O)[C@H](CO)NC(=O)[C@H](CCCCN)NC(=O)[C@@H]2CCCN2C(=O)[C@H](CCC(=O)O)NC(=O)[C@H]([C@@H](C)O)NC(=O)[C@H](CC(=O)O)NC1=O` [[Glu7]ShK], the IC50 in experiment [1] (setting [3]) worked out at 19.5 nM; on hKv1.3, 1.25 nM; in experiment [2] it was 5 nM.
On to `CCCC[C@@H]1NC(=O)[C@H](CO)NC(=O)[C@H](Cc2c[nH]cn2)NC(=O)[C@H](CCCCN)NC(=O)[C@@H]2CSSC[C@@H]3NC(=O)[C@H]([C@@H](C)O)NC(=O)[C@H](CCCCN)NC(=O)[C@H](CCCNC(=N)N)NC(=O)[C@H](CSSC[C@H](NC(=O)[C@H](CCCNC(=N)N)NC(=O)[C@H](CO)NC(=O)[C@H](CCC(=O)O)NC(=O)[C@@H]4CCCN4C(=O)[C@H]([C@@H](C)CC)NC(=O)[C@H]([C@@H](C)O)NC(=O)[C@H](CC(=O)O)NC(=O)[C@H]([C@@H](C)CC)NC(=O)[C@@H](NC(=O)[C@H](CO)NC(=O)[C@@H](N)CCCNC(=N)N)CSSC[C@@H](C(N)=O)NC(=O)[C@H]([C@@H](C)O)NC(=O)CNC3=O)C(=O)N[C@@H]([C@@H](C)O)C(=O)N[C@@H](C)C(=O)N[C@@H](Cc3ccccc3)C(=O)N[C@@H](CCCCN)C(=O)N2)NC(=O)[C@H](Cc2ccccc2)NC(=O)[C@H](CO)NC(=O)[C@H](CC(C)C)NC(=O)[C@H](CCCNC(=N)N)NC(=O)[C@H](Cc2ccc(O)cc2)NC(=O)[C@H](CCCCN)NC1=O` [[Glu9, Lys16,Nle21]ShK-amide], for which the IC50 in experiment [1] (setting [4]) is 0.342 nM; on hKv1.3, 0.263 nM; in experiment [2], 0.257 nM.
Take `CC[C@H](C)[C@@H]1NC(=O)[C@@H](NC(=O)[C@H](CO)NC(=O)[C@@H](N)CCCNC(=N)N)CSSC[C@@H](C(=O)O)NC(=O)[C@H]([C@@H](C)O)NC(=O)CNC(=O)[C@@H]2CSSC[C@@H]3NC(=O)[C@H](CCC(N)=O)NC(=O)[C@H](Cc4ccccc4)NC(=O)[C@H](C)NC(=O)[C@H]([C@@H](C)O)NC(=O)[C@H](CSSC[C@H](NC(=O)[C@H](Cc4ccccc4)NC(=O)[C@H](CO)NC(=O)[C@H](CC(C)C)NC(=O)[C@H](CCCNC(=N)N)NC(=O)[C@H](Cc4ccc(O)cc4)NC(=O)[C@H](CCCCN)NC(=O)[C@H](CCSC)NC(=O)[C@H](CO)NC(=O)[C@H](Cc4c[nH]cn4)NC(=O)[C@H](CCCCN)NC3=O)C(=O)N[C@@H](CCCNC(=N)N)C(=O)N[C@@H](CCCCN)C(=O)N[C@@H]([C@@H](C)O)C(=O)N2)NC(=O)[C@H](CCCNC(=N)N)NC(=O)[C@H](CO)NC(=O)[C@H](CCC(=O)O)NC(=O)[C@@H]2CCCN2C(=O)[C@H]([C@@H](C)CC)NC(=O)[C@H]([C@@H](C)O)NC(=O)[C@H](CC(=O)O)NC1=O` [[Glu9]ShK]: the IC50 is 0.056 nM in experiment [1] (setting [3]), 0.128 nM at hKv1.3 and 0.036 nM in experiment [2].
In the case of `CCCC[C@@H]1NC(=O)[C@H](CO)NC(=O)[C@H](Cc2c[nH]cn2)NC(=O)[C@H](CCCCN)NC(=O)[C@@H]2CSSC[C@@H]3NC(=O)[C@H]([C@@H](C)O)NC(=O)[C@H](CCCCN)NC(=O)[C@H](CCCNC(=N)N)NC(=O)[C@H](CSSC[C@H](NC(=O)[C@H](CCCNC(=N)N)NC(=O)[C@H](CCC(=O)O)NC(=O)[C@H](CCCCN)NC(=O)[C@@H]4CCCN4C(=O)[C@H]([C@@H](C)CC)NC(=O)[C@H]([C@@H](C)O)NC(=O)[C@H](CC(=O)O)NC(=O)[C@H]([C@@H](C)CC)NC(=O)[C@@H](NC(=O)[C@H](CO)NC(=O)[C@@H](N)CCCNC(=N)N)CSSC[C@@H](C(N)=O)NC(=O)[C@H]([C@@H](C)O)NC(=O)CNC3=O)C(=O)N[C@@H]([C@@H](C)O)C(=O)N[C@@H](C)C(=O)N[C@@H](Cc3ccccc3)C(=O)N[C@@H](CCCCN)C(=O)N2)NC(=O)[C@H](Cc2ccccc2)NC(=O)[C@H](CO)NC(=O)[C@H](CC(C)C)NC(=O)[C@H](CCCNC(=N)N)NC(=O)[C@H](Cc2ccc(O)cc2)NC(=O)[C@H](CCCCN)NC1=O` [[Glu10,Lys16,Nle21]ShK-amide], the IC50 in experiment [1] (setting [4]) came to 1.26 nM; against hKv1.3, 0.127 nM; in experiment [2], 0.776 nM.
For the compound `CC[C@H](C)[C@@H]1NC(=O)[C@@H](NC(=O)[C@H](CO)NC(=O)[C@@H](N)CCCNC(=N)N)CSSC[C@@H](C(=O)O)NC(=O)[C@H]([C@@H](C)O)NC(=O)CNC(=O)[C@@H]2CSSC[C@@H]3NC(=O)[C@H](CCC(N)=O)NC(=O)[C@H](Cc4ccccc4)NC(=O)[C@H](C)NC(=O)[C@H]([C@@H](C)O)NC(=O)[C@H](CSSC[C@H](NC(=O)[C@H](Cc4ccccc4)NC(=O)[C@H](CO)NC(=O)[C@H](CC(C)C)NC(=O)[C@H](CCCNC(=N)N)NC(=O)[C@H](Cc4ccc(O)cc4)NC(=O)[C@H](CCCCN)NC(=O)[C@H](CCSC)NC(=O)[C@H](CO)NC(=O)[C@H](Cc4c[nH]cn4)NC(=O)[C@H](CCCCN)NC3=O)C(=O)N[C@@H](CCCNC(=N)N)C(=O)N[C@@H](CCCCN)C(=O)N[C@@H]([C@@H](C)O)C(=O)N2)NC(=O)[C@H](CCCNC(=N)N)NC(=O)[C@H](CCC(=O)O)NC(=O)[C@H](CCCCN)NC(=O)[C@@H]2CCCN2C(=O)[C@H]([C@@H](C)CC)NC(=O)[C@H]([C@@H](C)O)NC(=O)[C@H](CC(=O)O)NC1=O` [[Glu10]ShK], the IC50 in experiment [1] (setting [3]) was 0.055 nM; on hKv1.3, 0.134 nM; in experiment [2], 0.023 nM.
Taken in the same sequence, the figures for `CC[C@H](C)[C@@H]1NC(=O)[C@@H](NC(=O)[C@H](CO)NC(=O)[C@@H](N)CCCNC(=N)N)CSSC[C@@H](C(=O)O)NC(=O)[C@H]([C@@H](C)O)NC(=O)CNC(=O)[C@@H]2CSSC[C@@H]3NC(=O)[C@H](CCC(N)=O)NC(=O)[C@H](Cc4ccccc4)NC(=O)[C@H](C)NC(=O)[C@H]([C@@H](C)O)NC(=O)[C@H](CSSC[C@H](NC(=O)[C@H](Cc4ccccc4)NC(=O)[C@H](CO)NC(=O)[C@H](CC(C)C)NC(=O)[C@H](CCCNC(=N)N)NC(=O)[C@H](Cc4ccc(O)cc4)NC(=O)[C@H](CCCCN)NC(=O)[C@H](CCSC)NC(=O)[C@H](CO)NC(=O)[C@H](Cc4c[nH]cn4)NC(=O)[C@H](CCCCN)NC3=O)C(=O)N[C@@H](CCCNC(=N)N)C(=O)N[C@@H](CCCCN)C(=O)N[C@@H]([C@@H](C)O)C(=O)N2)NC(=O)[C@H](CCC(=O)O)NC(=O)[C@H](CO)NC(=O)[C@H](CCCCN)NC(=O)[C@@H]2CCCN2C(=O)[C@H]([C@@H](C)CC)NC(=O)[C@H]([C@@H](C)O)NC(=O)[C@H](CC(=O)O)NC1=O` [[Glu11]ShK] were 4.54 nM, 0.969 nM and 1.32 nM.
